Values joined by “and” are separate entries in the source; they are usually repeats but may differ in a detail not shown here. Equal entries are not always repeated. Structures can show the parent of a compound that is named as a salt.
Assays:
[1] = Metabolic profiling of 14C-3APS in mice; assay type: in vivo, male CD-1 mice
Procedure: (§1) Three single dose studies were conducted in mice, rats and dogs to determine the metabolic profile of ^14C-3APS in plasma, urine and feces. In the first study, twenty-seven male CD-1 mice received a single dose of 100 mg/kg (20 μCi/animal) of ^14C-3APS by oral gavage. Blood samples (3 animals/time point) were collected for 12 hr following drug administration while urine and feces (3 animals/time point) samples were collected for 96 hr. In the second study, eight male Sprague-Dawley rats received a single dose of 100 mg/kg (50 μCi/animal) of ^14C-3APS by oral gavage while in the third study, three male Beagle dogs received a single dose of 100 mg/kg (30 μCi/kg) of ^14C-3APS by oral gavage. For the rat and dog studies, blood samples were collected for 24 hr following drug administration while urine and feces samples were collected for 72 hr. All samples were analyzed for total radioactivity using appropriate sample preparation procedures and scintillation counting. Plasma and urine samples were also analyzed for 3APS and 3APS metabolites (2-carboxyethanesulfonic acid, 3-hydroxy-1-propanesulfonic acid and 3-acetylamino-1-propanesulfonic acid) concentrations using qualified HPLC and MS/MS methods.

[2] = Metabolic profiling of 14C-3APS in rats; assay type: in vivo, male Sprague-Dawley rats
Procedure: as §1

[3] = Metabolic profiling of 14C-3APS in dogs; assay type: in vivo, male Beagle dogs
Procedure: as §1

[4] = Absorption, excretion and plasma kinetics of 14C-3APS in humans; assay type: in vivo, human
Description: Following the identification of 3APS metabolites, plasma and urine samples from this human AME study were reanalyzed for 3APS and 3APS metabolite (2-carboxyethanesulfonic acid, 3-hydroxy-1-propanesulfonic acid and 3-acetylamino-1-propanesulfonic acid) concentrations using qualified HPLC and MS/MS methods to determine the metabolic profile of ^14C-3APS in human.

[5] = Single oral and IV administration of 14C-3APS to rats; assay type: in vivo, male Sprague-Dawley rats; conditions: for AUC0-∞ / AUC(0-inf): 100 mg/kg 14C-3APS, rats, 100 mg/kg; for AUC(0-inf): male, Sprague-Dawley, rat, plasma
Procedure: The purpose of this study was to investigate the absorption, metabolism and excretion profiles of ^14C-3APS following a single intravenous bolus and oral administration to rats. Thirty-six male Sprague-Dawley rats received a single 100 mg/kg (˜50 μCi/animal) dose of ^14C-3APS by an IV bolus injection (water or isotonic saline solution) and an additional 36 male rats received the same dose level by oral gavage (in water). Blood, urine, feces, brain and CSF samples were collected for up to 72 hr following dose administration. Plasma, urine, brain and CSF concentrations of 3APS and 2-carboxyethanesulfonic acid (3APS major metabolite) were measured using LC and MS/MS detection method. Plasma, urine, feces, brain and CSF samples were analyzed for total radioactivity using appropriate sample preparation procedures and scintillation counting.

[6] = Mouse whole blood stability; assay type: in vitro ADME; conditions: 37° C.
Procedure: (§2) Test compounds were incubated for a total of 240 minutes at 37° C. in whole mouse and whole human blood. The compounds were added at time-point 0 and sample aliquots were withdrawn at each time point (usually 0, 60 and 240 minutes). The samples were extracted using protein precipitation. Analysis of extracted samples was achieved using HPLC with MS detection. Several types of HPLC columns and mobile phase were used depending of the polarity of the compound. The compound stability was determined by the % of compound remaining at 240 minutes (peak response of compound at 240 minutes/peak response at 0 minutes×100).

[7] = Bioavailability of exemplary compounds in mice (3APS quantified in plasma); assay type: in vivo; conditions: compared with 3APS
Procedure: Selected exemplary compounds were tested for bioavailability in mice. Bioavailability estimates are performed for 3APS after administration of molar equivalent the selected compounds. […] The animals are anesthetized with isoflurane before blood collection (approximately 45 sec). Samples are collected at 5, 30, 60, 120, 180, 240 and 360 min post intravenous administration and at 15, 30, 60, 120, 180, 240 and 360 min post oral administration. One animal is used to obtain a baseline sample (pre-dose sample). Blood samples are collected into Sarstedt™ micro tubes (EDTA KE/1.3 ml), kept on ice until centrifugation at 4° C. at a minimum speed of 3000 rpm (1620 G) for 10 min. Plasma samples are transferred into Eppendorf™ tubes, immediately placed on dry ice and stored at −80° C. Plasma samples are stored frozen at […] pending analysis.
Compounds in mouse plasma are extracted using protein precipitation. Quantitation of 3APS in mouse plasma matrix is achieved using LC-MS detection. Sample concentration is calculated using a calibration curve.

[8] = PK brain and plasma levels of oral Compound A2 and 3-APS in mice; assay type: in vivo; conditions: oral 0.18 mmol/kg
Procedure: Compounds A2 and 3-aminopropanesulfonic acid were tested for pharmacokinetic parameters in mice. Parmacokinetic parameters (Cmax, Tmax, T½, AUC) are evaluated for 3APS after administration of a molar equivalent of each compound. Blood samples (approximately 1 ml) and brain samples are collected from each of 3 animals at time points 5, 15, 30 minutes, 1, 2, 4, 6, 12, and 24 hours. […] A 2-fold increase in plasma concentration (Cmax) of 3-APS was observed when orally administering Compound A2 compared to 3-APS.

[9] = Human whole blood stability; assay type: in vitro ADME; conditions: 37° C.
Procedure: as §2

[10] = Stability in water, at pH 1.5 and PBS; assay type: physicochemical; conditions: 37° C., 60 min
Procedure: Stability of exemplary compounds was determined in water, aqueous acidic solution (pH 1.5, HCl) and PBS (phosphate buffered saline) solution using ESI-MS (electrospray ionization mass spectrometry) as the detecting instruments. In general a 2 μg/mL pro-drug solution containing 1 μg/ml IS (internal standard) was prepared and incubated for 60 min. For water stability the incubation was performed at room temperature and for stability in acidic solution and in buffer. The incubation temperature was 37° C. Samples were analyzed for prodrug content at time points 0 and 60 min. using MS. The % changes in peak area ratio after 60 minutes for each test compound tested are calculated using the average values from six replicate runs. The compounds tested included Compounds A1 to A19, Compounds B5 and B6 and Compounds C1 to C26. Except for C26 which was found unstable at pH 1.5 and in PBS, all other compounds were judged to be stable under all conditions tested with less than about 15%-20% concentration change after 60 minutes.

[11] = test system: primary rat neuron culture; assay: In vitro metabolism of 3APS in primary rat neuron culture; assay type: in vitro ADME; conditions: primary neuron culture media
Procedure: The metabolism of 3APS was also studied in vitro in different types of cellular models. In some cases, the metabolism of 3APS was compared with that of γ-amino butyric acid (GABA).
The conversion of 3APS to 2-carboxyethanesulfonic acid was time-dependent and cell concentration-dependent. Incubation of 3APS (400 μM initial concentration) for six days in the cell culture media (containing 800,000 cells) produced with 48 μM of 2-carboxyethanesulfonic acid. Under the same experimental conditions, 5.4 μM succinic acid was detected starting from GABA (400 μM initial concentration).

[12] = Mouse plasma, analyte after single oral 100 mg/kg 14C-3APS
[13] = male, CD-1, mouse, plasma, po, 100 mg/kg, Mouse plasma, analyte after single oral 100 mg/kg 14C-3APS
[14] = Rat plasma, analyte after single oral 100 mg/kg 14C-3APS
[15] = male, Sprague-Dawley, rat, plasma, po, 100 mg/kg, Rat plasma, analyte after single oral 100 mg/kg 14C-3APS
[16] = IV, individual animals 1001-1004
[17] = PO, individual animals 3001-3004
[18] = Mouse plasma, single oral 100 mg/kg 14C-3APS
[19] = Rat plasma, single oral 100 mg/kg 14C-3APS
[20] = Dog plasma, single oral 100 mg/kg 14C-3APS

SMILES: O=C(O)CCS(=O)(=O)O [2-carboxyethanesulfonic acid]
- AUC0-τ [1, 12]: 7.26 µmol·min/mL
- AUC∞ [1, 12]: 7.56 µmol·min/mL
- % of Total Radioactivity, Plasma ([1]; Mouse, AUC0-∞ analyte/AUC total radioactivity, single oral 100 mg/kg 14C-3APS): 30%
- % of Total Radioactivity, Urine ([1]; Mouse, amount excreted, single oral 100 mg/kg 14C-3APS, 100 mg/kg): 62%
- Tmax [1, 13]: 2 h
- half-life [1, 13]: ~2 h
- Cmax ([1]; male, CD-1, Mouse plasma, analyte (3APS or metabolite) after single oral 100 mg/kg 14C-3APS): 18 µM
- AUC0-τ [2, 14]: 12.7 µmol·min/mL
- AUC∞ [2, 14]: 13.6 µmol·min/mL
- T1/2 ([2]; Rat plasma, analyte after single oral 100 mg/kg 14C-3APS, 100 mg/kg): 3.99 h
- % of Total Radioactivity, Plasma ([2]; Rat, AUC0-∞ analyte/AUC total radioactivity, single oral 100 mg/kg 14C-3APS): 30%
- % of Total Radioactivity, Urine ([2]; Rat, amount excreted, single oral 100 mg/kg 14C-3APS): 62%
- Tmax [2, 15]: 4 h
- half-life [2, 15]: ~4 h
- Cmax ([2]; male, Sprague-Dawley, Rat plasma, analyte (3APS or metabolite) after single oral 100 mg/kg 14C-3APS): 23.4 µM
- AUC0-τ ([3]; Dog plasma, analyte after single oral 100 mg/kg 14C-3APS): 30.5 µmol·min/mL
- % of Total Radioactivity, Urine ([3]; Dog, amount excreted, single oral 100 mg/kg 14C-3APS, 100 mg/kg): 77%
- Tmax ([3]; male, Beagle, dog, plasma, po, 100 mg/kg, Dog plasma, analyte after single oral 100 mg/kg 14C-3APS): 12 h
- Cmax ([3]; male, Beagle, Dog plasma, analyte (3APS or metabolite) after single oral 100 mg/kg 14C-3APS): 31.2 µM
- time of maximum plasma concentration ([4]; healthy subjects, analyte after oral 14C-3APS): 6.5 h
- % of total radioactivity in plasma based on AUC0-τ ([4]; healthy subjects, oral 14C-3APS): 49%
- % of total amount of radioactivity excreted in urine ([4]; human urine): 79%
- AUC0-∞ [5, 16]: 144 µM·h and 184 µM·h and 125 µM·h
- % of total radioactivity (AUC0-∞ analyte/AUC total radioactivity) [5, 16]: 6.5% and 9.1% and 9.8% and 9.9%
- AUC0-∞ [5, 17]: 153 µM·h and 177 µM·h and 229 µM·h
- % of total radioactivity (AUC0-∞ analyte/AUC total radioactivity) [5, 17]: 26.5% and 21.4% and 28.2% and 29.3%
- AUC(0-inf) ([5]; iv, Mean): 140 µM·h
- AUC(0-inf) ([5]; iv, individual animals 1001-1004): 105 µM·h
- AUC(0-inf) ([5]; po, Mean): 198 µM·h
- AUC(0-inf) ([5]; po, individual animals 3001-3004): 232 µM·h

SMILES: CC(C)[C@H](N)C(=O)NCCCS(=O)(=O)O [Compound A2]
- Blood stability (% of compound remaining after 240 min.) Mouse Blood [6]: ++ (++: 30-75%)
- effect on bioavailability of 3APS [7]: increasing the bioavailability of 3APS
- Brain concentration of 3-APS [8]: observed

SMILES: NCCCC[C@H](N)C(=O)NCCCS(=O)(=O)O [Compound A4]
- Blood stability (% of compound remaining after 240 min.) Mouse Blood [6]: +++ (+++: >75%)
- Blood stability (% of compound remaining after 240 min.) Human Blood [9]: + (+: <30%)
- effect on bioavailability of 3APS [7]: increasing the bioavailability of 3APS

SMILES: N[C@@H](CO)C(=O)NCCCS(=O)(=O)O [Compound A7]
- Blood stability (% of compound remaining after 240 min.) Mouse Blood [6]: +++ (+++: >75%)
- Blood stability (% of compound remaining after 240 min.) Human Blood [9]: +++ (+++: >75%)
- effect on bioavailability of 3APS [7]: increasing the bioavailability of 3APS

SMILES: N[C@@H](COCc1ccccc1)C(=O)NCCCS(=O)(=O)O [Compound A18]
- Blood stability (% of compound remaining after 240 min.) Mouse Blood [6]: + (+: <30%)
- Blood stability (% of compound remaining after 240 min.) Human Blood [9]: + (+: <30%)
- effect on bioavailability of 3APS [7]: increasing the bioavailability of 3APS

SMILES: Cc1oc(=O)oc1COC(=O)NCCCS(=O)(=O)O [Compound C26, 3-({[(5-methyl-2-oxo-1,3-dioxol-4-yl)methoxy]carbonyl}amino)-1-propanesulfonic Acid Sodium Salt]
- Stability in PBS [10]: unstable
- Stability in aqueous acidic solution (pH 1.5, HCl) [10]: unstable

SMILES: O=C(CCNNC(=O)c1ccncc1)NCc1ccccc1 [Nialamide]
- effect on the conversion of 3APS to 2-carboxyethanesulfonic acid [11]: reduced the formation of 2-carboxyethanesulfonic acid (from 3APS) but to a lesser extent

SMILES: NCCCS(=O)(=O)O [^14C-3APS]
- Total Radioactivity AUC0-τ [1, 18]: 24.4 μmol eq · min/mL
- Total Radioactivity AUC∞ [1, 18]: 25.0 μmol eq · min/mL
- % of the dose excreted in urine as total radioactivity ([1]; mouse, on average in all species): 60%
- Total Radioactivity AUC0-τ [2, 19]: 43.3 μmol eq · min/mL
- Total Radioactivity AUC∞ [2, 19]: 45.2 μmol eq · min/mL
- % of the dose excreted in urine as total radioactivity ([2]; rat, on average in all species): 60%
- Total Radioactivity AUC0-τ [3, 20]: 45.4 μmol eq · min/mL
- Total Radioactivity AUC∞ [3, 20]: 108 μmol eq · min/mL
- % of the dose excreted in urine as total radioactivity ([3]; dog, on average in all species): 60%
- AUC0-∞ Total Radioactivity ([5]; IV, Mean): 1591 nmol eq · h/mL
- AUC0-∞ Total Radioactivity [5, 16]: 1625 nmol eq · h/mL and 1588 nmol eq · h/mL and 1883 nmol eq · h/mL and 1266 nmol eq · h/mL
- AUC0-∞ Total Radioactivity ([5]; PO, Mean): 749 nmol eq · h/mL
- AUC0-∞ Total Radioactivity [5, 17]: 874 nmol eq · h/mL and 714 nmol eq · h/mL and 628 nmol eq · h/mL and 781 nmol eq · h/mL

SMILES: NCC1(CC(=O)O)CCCCC1 [gabapentin]
- effect on the conversion of 3APS to 2-carboxyethanesulfonic acid [11]: no significant effect

SMILES: C=CC(N)CCC(=O)O (stereo not drawn) [vigabatrin]
- effect on the conversion of 3APS to 2-carboxyethanesulfonic acid [11]: significantly inhibited

— patent US11020360B2, “Methods, compounds, compositions and vehicles for delivering 3-amino-1-propanesulfonic acid” (Bellus Health, Inc., priority 2006, dated 2021)
